Test results reported in US20070072181A1 (priority 2003, published 2007).
Like-named read-outs stand apart in the source and are kept apart here.

System: VSV
Format: cell-based

Structure (SMILES): Cc1ccc(=O)n(-c2ccccc2)c1 [PD, 5-methyl-1-phenyl-2-(1H)-pyridone]
- Mean (Means for Oneway Anova; antiviral effect) (0.001 ng interferon + 3 μg pirfenidone (PD), HeLa, VSV): 0.6002
- Mean (Means for Oneway Anova; antiviral effect) (0.001 ng interferon + 30 μg pirfenidone (PD), HeLa, VSV): 0.543
- Mean (Means for Oneway Anova; antiviral effect) (0.001 ng interferon + 300 μg pirfenidone (PD), HeLa, VSV): 0.3705
- Mean (Means for Oneway Anova; antiviral effect) (0.0049 ng interferon + 3 μg pirfenidone (PD), HeLa, VSV): 0.407
- Mean (Means for Oneway Anova; antiviral effect) (0.0049 ng interferon + 30 μg pirfenidone (PD), HeLa, VSV): 0.3033
- Mean (Means for Oneway Anova; antiviral effect) (0.0049 ng interferon + 300 μg pirfenidone (PD), HeLa, VSV): 0.1915
- Mean (Means for Oneway Anova; antiviral effect) (0.019 ng interferon + 3 μg pirfenidone (PD), HeLa, VSV): 0.519
- Mean (Means for Oneway Anova; antiviral effect) (0.019 ng interferon + 30 μg pirfenidone (PD), HeLa, VSV): 0.284
- Mean (Means for Oneway Anova; antiviral effect) (0.019 ng interferon + 300 μg pirfenidone (PD), HeLa, VSV): 0.1785
- Mean (Means for Oneway Anova; antiviral effect) (0.076 ng interferon + 3 μg pirfenidone (PD), HeLa, VSV): 0.68
- Mean (Means for Oneway Anova; antiviral effect) (0.076 ng interferon + 30 μg pirfenidone (PD), HeLa, VSV): 0.4505
- Mean (Means for Oneway Anova; antiviral effect) (0.076 ng interferon + 300 μg pirfenidone (PD), HeLa, VSV): 0.1938
- Mean (Means for Oneway Anova; antiviral effect) (0.3 ng interferon + 3 μg pirfenidone (PD), HeLa, VSV): 0.5563
- Mean (Means for Oneway Anova; antiviral effect) (0.3 ng interferon + 30 μg pirfenidone (PD), HeLa, VSV): 0.4298
- Mean (Means for Oneway Anova; antiviral effect) (0.3 ng interferon + 300 μg pirfenidone (PD), HeLa, VSV): 0.1948
- Mean (Means for Oneway Anova; antiviral effect) (1.2 ng interferon + 3 μg pirfenidone (PD), HeLa, VSV): 0.306
- Mean (Means for Oneway Anova; antiviral effect) (1.2 ng interferon + 30 μg pirfenidone (PD), HeLa, VSV): 0.4248
- Mean (Means for Oneway Anova; antiviral effect) (1.2 ng interferon + 300 μg pirfenidone (PD), HeLa, VSV): 0.1872
- Mean (Means for Oneway Anova; antiviral effect) (4.8 ng interferon + 3 μg pirfenidone (PD), HeLa, VSV): 0.245
- Mean (Means for Oneway Anova; antiviral effect) (4.8 ng interferon + 30 μg pirfenidone (PD), HeLa, VSV): 0.3757
- Mean (Means for Oneway Anova; antiviral effect) (4.8 ng interferon + 300 μg pirfenidone (PD), HeLa, VSV): 0.325
- Mean (Means for Oneway Anova; antiviral effect) (19 ng interferon + 3 μg pirfenidone (PD), HeLa, VSV): 0.979
- Mean (Means for Oneway Anova; antiviral effect) (19 ng interferon + 30 μg pirfenidone (PD), HeLa, VSV): 0.2968
- Mean (Means for Oneway Anova; antiviral effect) (19 ng interferon + 300 μg pirfenidone (PD), HeLa, VSV): 0.4105
- effect on the antiviral effects of interferon (low doses of Pirfenidone with interferon, HeLa, VSV): enhance the antiviral effects of interferon
- effect on viral growth in combination with IFN-α (low doses of pirfenidone in combination therapy with IFN-α): synergistic effect on reducing viral growth
